Reference: ChEMBL document CHEMBL1152749, “Haemolytic activity, cytotoxicity and membrane cell permeabilization of semi-synthetic and natural lupane- and oleanane-type saponins” (Bioorg Med Chem, 2009)

Key:
A549 [1] = test: Cytotoxicity against human A549 cells after 48 hrs by resazurin reduction test; type: functional, cell-based; settings: A549, 48 h
[2] = Cytotoxicity against human WS1 cells after 48 hrs by resazurin reduction test; type: cell-based; settings: WS1, 48 h
[3] = Cell membrane permeabilization in human WS1 cells assessed as drug level causing decrease in calcein fluorescence; type: ADME, cell-based
DLD-1 [4] = test: Cell membrane permeabilization in human DLD1 cells assessed as drug level causing decrease in calcein fluorescence; type: ADME, cell-based
[5] = Toxicity in sheep erythrocytes assessed as induction of hemolysis; type: cell-based, Ovis aries, Erythrocyte; settings: read-out: HD50 (the source's name)
A549 [6] = test: Cell membrane permeabilization in human A549 cells assessed as drug level causing decrease in calcein fluorescence; type: ADME, cell-based
DLD-1 [7] = test: Cytotoxicity against human DLD1 cells after 48 hrs by resazurin reduction test; type: functional, cell-based; settings: DLD-1, 48 h

Compound	IC50 (A549 [1])	IC50 [2]	IC50 [3]	IC50 (DLD-1 [4])	HC50 [5]	IC50 (A549 [6])	IC50 (DLD-1 [7])
C=C(C)[C@@H]1CC[C@]2(C(=O)O)CC[C@]3(C)[C@H](CC[C@@H]4[C@@]5(C)CC[C@H](O[C@@H]6OC[C@H](O)[C@H](O)[C@H]6O[C@@H]6O[C@@H](C)[C@H](O)[C@@H](O)[C@H]6O)C(C)(C)[C@@H]5CC[C@]43C)[C@@H]12	> 100 µM	> 100 µM	> 200 µM	> 200 µM	78 µM	> 200 µM	> 100 µM
C=C(C)[C@@H]1CC[C@]2(C(=O)O[C@@H]3O[C@H](CO)[C@@H](O)[C@H](O)[C@H]3O)CC[C@]3(C)[C@H](CC[C@@H]4[C@@]5(C)CC[C@H](O[C@@H]6OC[C@H](O)[C@H](O)[C@H]6O[C@@H]6O[C@@H](C)[C@H](O)[C@@H](O)[C@H]6O)C(C)(C)[C@@H]5CC[C@]43C)[C@@H]12	> 50 µM	> 50 µM	> 200 µM	> 200 µM	> 100 µM	> 200 µM	> 50 µM
C=C(C)[C@@H]1CC[C@]2(C(=O)O)CC[C@]3(C)[C@H](CC[C@@H]4[C@@]5(C)CC[C@H](O[C@@H]6OC[C@H](O[C@@H]7O[C@H](CO)[C@@H](O)[C@H](O)[C@H]7O)[C@H](O)[C@H]6O[C@@H]6O[C@@H](C)[C@H](O)[C@@H](O)[C@H]6O)C(C)(C)[C@@H]5CC[C@]43C)[C@@H]12	> 50 µM	> 50 µM	> 200 µM	> 200 µM	94 µM	> 200 µM	> 50 µM
C=C(C)[C@@H]1CC[C@]2(CO)CC[C@]3(C)[C@H](CC[C@@H]4[C@@]5(C)CC[C@H](O[C@@H]6OC[C@H](O)[C@H](O)[C@H]6O[C@@H]6O[C@@H](C)[C@H](O)[C@@H](O)[C@H]6O)C(C)(C)[C@@H]5CC[C@]43C)[C@@H]12	> 100 µM	> 100 µM	> 200 µM	> 200 µM	> 100 µM	> 200 µM	> 100 µM
C[C@@H]1O[C@@H](O[C@H]2[C@H](O[C@H]3CC[C@@]4(C)[C@@H](CC[C@]5(C)[C@@H]4CC=C4[C@@H]6CC(C)(C)CC[C@]6(C(=O)O)CC[C@]45C)[C@]3(C)CO)OC[C@H](O)[C@@H]2O)[C@H](O)[C@H](O)[C@H]1O [ALPHA-HEDERIN]	33 µM	30 µM	24 µM	38 µM	10 µM	28 µM	60 µM
C[C@@H]1O[C@@H](O[C@H]2[C@H](O[C@H]3CC[C@]4(C)[C@H]5CC=C6[C@@H]7CC(C)(C)CC[C@]7(C(=O)O)CC[C@@]6(C)[C@]5(C)CC[C@H]4C3(C)C)OC[C@H](O[C@@H]3O[C@H](CO)[C@@H](O)[C@H](O)[C@H]3O)[C@@H]2O)[C@H](O)[C@H](O)[C@H]1O [HEDERACOLCHISIDE A1]	15 µM	5.7 µM	3 µM	4 µM	1.7 µM	4 µM	16 µM
C[C@@H]1O[C@@H](O[C@H]2[C@H](O[C@H]3CC[C@@]4(C)[C@@H](CC[C@]5(C)[C@@H]4CC=C4[C@@H]6CC(C)(C)CC[C@]6(C(=O)O)CC[C@]45C)[C@]3(C)CO)OC[C@H](O[C@@H]3O[C@H](CO)[C@@H](O)[C@H](O)[C@H]3O)[C@@H]2O)[C@H](O)[C@H](O)[C@H]1O [HEDERACOLCHISIDE A]	59 µM	58 µM	86 µM	159 µM	22 µM	110 µM	62 µM
CC1(C)CC[C@]2(C(=O)O)CC[C@]3(C)C(=CC[C@@H]4[C@@]5(C)CC[C@H](O)[C@@](C)(CO)[C@@H]5CC[C@]43C)[C@@H]2C1 [HEDERAGENIN]	39 µM	77 µM	> 200 µM	> 200 µM	> 100 µM	> 200 µM	> 100 µM
CC1(C)CC[C@]2(C(=O)O)CC[C@]3(C)C(=CC[C@@H]4[C@@]5(C)CC[C@H](O[C@@H]6O[C@H](CO)[C@@H](O)[C@H](O)[C@H]6O)[C@@](C)(CO)[C@@H]5CC[C@]43C)[C@@H]2C1 [Hederagenin-3-O-beta-D-glucopyranoside]	59 µM	32 µM	102 µM	89 µM	16 µM	65 µM	59 µM
CC1(C)CC[C@]2(C(=O)O)CC[C@]3(C)C(=CC[C@@H]4[C@@]5(C)CC[C@H](O)C(C)(C)[C@@H]5CC[C@]43C)[C@@H]2C1 [OLEANOLIC_ACID]	27 µM	> 100 µM	> 200 µM	> 200 µM	> 100 µM	> 200 µM	> 100 µM
